Measurements: patent US8853147B2, “Use of peptide epoxyketones for metastasis suppression” (Onyx Therapeutics, Inc., priority 2009, dated 2014)
Entries after “also recorded” stand apart in the source; their conditions may differ.

System: 4T1 mammary carcinoma cells
Test: 4T1 mammary carcinoma metastasis model in BALB/c mice (mammary fat pad challenge, lung metastases)
Assay type: in vivo
Details: female BALB/c mice
Protocol: 6-8 week old female BALB/c mice were challenged in the mammary fat pad with 4T1 mammary carcinoma cells (1×10^5/mouse). Treatment was initiated on Day 3 post tumor challenge. Compound 1 was administered orally at 30 or 40 mg/kg on a weekly schedule of QDX2 or QDX5.

SMILES: COC[C@H](NC(=O)c1cnc(C)s1)C(=O)N[C@@H](COC)C(=O)N[C@@H](Cc1ccccc1)C(=O)[C@@]1(C)CO1 [Compound 1]
- reduction of the number of metastatic tumors in the lung (4T1 cells 1×10^5/mouse in mammary fat pad, oral 30 or 40 mg/kg, weekly schedule QDX2 or QDX5, treatment from Day 3 post tumor challenge): about 50%
- repression of metastasis (number of metastatic tumors), result in words (4T1 model, both dose schedules (QDX2, QDX5) and dose levels (30, 40 mg/kg oral), FIG. 1): reduction in the number of metastatic breast tumors; also recorded: effective in repressing metastasis
